Measured values from paper PMC5481773, “Structural insights into the function of ZRANB3 in replication stress response” (Nature Communications, 2017).

Key:
ZRANB3 = ZRANB3 nuclease assay with non-hydrolysable ATP analogues; type: biochemical, Human; conditions: wild-type ZRANB3, fluorescently labelled DNA substrate, native PAGE (Fig. 3d)
Description: Figure 3 Characterisation of the ZRANB3 HNH active site. (a) Overlay of the T4 endonuclease VII (yellow) and the ZRANB3 HNH (white) structures. […] (b) Overlay of the T4 endonuclease VII (yellow, labels in italics) and the ZRANB3 HNH (white) structures. Mg^2+ ion in T4 endonuclease is shown as a purple sphere. His1021, Asp1020 and His1045 in the HNH structure overlap with the active site residues of T4 endonuclease VII. (c) Nuclease assay with the wild-type and mutant ZRANB3 proteins in the presence and absence of ATP. Reactions were analysed by native poly-acrylamide gel electrophoresis. Indicated are mobilities of the fluorescently labelled DNA substrate and product. (d) Nuclease assay with non-hydrolysable ATP homologues. Shown are controls with the wild-type ZRANB3 and the ATPase dead K65R mutant in the presence of ATP.
Oligonucleotides used in the nuclease assays (5′-[…]-[…]-3′ and Cy3 5′-end-labelled 5′-[…]-[…]-3′) were incubated in 10 mM Tris-HCl pH 7.5, 50 mM NaCl for 3 min at 94 °C, after which the reactions were allowed to gradually cool down.
The nuclease assays with ZRANB3 was performed essentially as described in ref. [9]. Briefly, reaction mixtures containing the indicated nuclease (200 nM) and fluorescently labelled DNA substrate (10 nM) in 10 μl of reaction buffer (50 mM Tris-HCl; 50 mM NaCl; 5 mM MgCl2; 2 mM ATP (Sigma); pH 7.5) were incubated at 30 °C for 60 min. The reactions were stopped by incubation with 0.1% SDS and 4 mg ml^−1 of proteinase K at 30 °C for 45 min. The reactions were then mixed with sucrose (10% final concentration) and resolved in a 10% polyacrylamide gel in 0.5 × TBE buffer (45 mM Tris-borate, 1 mM EDTA; pH 7.5). The fluorescent DNA species were visualized and quantified using Pharos Mx imager and Quantity one software (BioRad).

PCNA = PCNA pull-down with biotinylated PIP box and APIM motif peptides; type: binding; conditions: biotinylated peptides on streptavidin beads, recombinant PCNA, Western blotting with PCNA antibody (Fig. 4c)
Method: Figure 4 Stimulation of the ZRANB3 nuclease activity by PCNA. (a) Stimulation of FEN1 and ZRANB3 nuclease activities by PCNA. FEN1 or ZRANB3 nucleases were incubated with the DNA substrate and increasing concentrations of PCNA (0.375, 0.75, 1.5 and 3 μM), in the presence (ZRANB3) or absence (FEN1) of ATP. (b) Domain structure of ZRANB3. Conservation of the PIP box and the APIM motif residues among ZRANB3 proteins are shown in the alignments below. Mutated conserved residues in the PIP box and the APIM motif are indicated by arrows. (c) Interactions of the ZRANB3 PIP box and APIM motif with PCNA. Biotinylated PIP box and APIM motif peptides were bound to streptavidin beads and incubated with recombinant PCNA. The interaction was assayed by Western blotting with PCNA antibody. […] (d) Effect of PCNA (0.375, 0.75, 1.5 and 3 μM) on ZRANB3 nuclease activity assayed with the wild-type ZRANB3 and ZRANB3 PCNA binding mutants (ZRANB3-PIP*, ZRANB3-ΔAPIM and ZRANB3-PIP*ΔAPIM). (e) Quantification of nuclease activities in the presence of increasing concentrations of PCNA. […]
Biotinylated PIP-box and APIM-motif peptides were synthesized by Genscript. […] The beads were subsequently washed with the same buffer to remove unbound PCNA, after which they were boiled in the SDS-PAGE loading buffer, and analysed by anti-PCNA Western blotting (ab18197, 1:1,000 dilution).

Row | Compound | ZRANB3 endonuclease activity on substitution of ATP by non-hydrolysable ATP analogue (ZRANB3) | Interaction with PCNA (pull-down) (PCNA)
1 | Nc1ncnc2c1ncn2[C@@H]1O[C@H](COP(=O)(O)OP(=O)(O)NP(=O)(O)O)[C@@H](O)[C@H]1O [AMP-PNP] | complete loss of activity | –
2 | APIM*: biotinylated ZRANB3 APIM motif peptide with F1075A mutation (pull-down) | – | abrogated the interaction with PCNA
3 | Nc1ncnc2c1ncn2[C@@H]1O[C@H](CO[P@](=O)(O)O[P@](=O)(O)O[P@@](=O)(O)S)[C@@H](O)[C@H]1O [ATPγS] | complete loss of activity | –
4 | Nc1ncnc2c1ncn2[C@@H]1O[C@H](COP(=O)(O)OP(=O)(O)CP(=O)(O)O)[C@@H](O)[C@H]1O [AMP-PCP] | complete loss of activity | –
